Measured values published in US20240426776A1, “RAPID DIFFERENTIATION OF ANTIBIOTIC-SUSCEPTIBLE AND -RESISTANT BACTERIA THROUGH MEDIATED EXTRACELLULAR ELECTRON TRANSFER” (priority 2021, published 2024).
In brackets after ≈: the same amount, converted by molar mass. Several values for one entry are separate records, joined by “and”; a condition that tells them apart may be missing. Identical values can stand only once. Like-named read-outs stand apart in the source and are kept apart here. Marks after values point to notes of the source that are not given here.

Assays:
[1] = system: Staphylococcus aureus (strains 29213 and 43300); test: Microdilution antibiotic susceptibility assay (MIC, CLSI guidelines); assay type: cell-based; details: for MIC: Staphylococcus aureus, MH media, oxacillin: 30° C., 18-24 h, 2% NaCl, read-out: estimated minimum inhibitory concentration from this study
Method: Testing for S. aureus susceptibility to oxacillin differed with incubation at 30° C. for 18-24 h in MH media supplemented with 2% NaCl.
Values listed in Table 2 below include the estimated minimum inhibitory concentration from this study (μg/mL), the determination of(S) sensitive or (R) resistant microbes according to CLSI criteria, and the CLSI guidelines (μg/mL) for the species being tested. Empty cells were not evaluated.

[2] = system: Staphylococcus aureus (strains 29213 and 43300); test: READAS electrochemical current response with PMS mediator (ASIn); assay type: cell-based; details: for ASIn (antibiotic susceptibility index), single replicates: oxacillin 20× breakpoint (120 μg/mL), ASI20, 30° C., 15 μM PMS, 0.1 OD600
Method: Each measurement was replicated at least four times.
(S. aureus experiments) or 37° C. (all others) MH media.
The current responses measured follows a sigmoidal curve structure.
As a second example method of operation, the S. aureus strains selected from Table 2 were assessed. Initially, a 2×CLSI resistance breakpoint concentrations for two antibiotics oxacillin (12 μg/mL) and tobramycin (32 μg/mL) were used for the example method of operation. The ASI2<0.4 and it was concluded that the concentration of the antibiotics was insufficient to classify the strains as antibiotic-susceptible or -resistant. S. aureus was then treated with 4×, 6×, 8×, 10×, and 20× the breakpoint concentration of oxacillin and was compared to the control as depicted in FIG. 8A. […] S. aureus was also treated with 4× and 10× the breakpoint concentration of tobramycin and was compared to the control depicted in FIG. 8B. […] The efficacy of antibiotic was proportional to the concentration when a high cell density (1.1×10^8 CFU/mL) was used.
The ASIn analysis time for classifying the strains as resistant or susceptible for tobramycin treatment was 33-78 min which was 30 min less than needed for detecting oxacillin susceptibility which required 60-96 min.

[3] = system: Gram-positive 1 ATCC 29213, Gram-positive 2 BAA-1026; test: READAS operator blinded test; assay type: cell-based; details: oxacillin 2× (12 μg/mL); for ASIn: OD600=0.1
Method: Tests were conducted for which the species or resistance phenotype was not known beyond the fact that one set was a Gram-positive and the other Gram-negative, and the antibiotics to be tested were oxacillin and imipenem, respectively. The isolates were provided as coded streak plates. Because the species were unknown, the breakpoint concentration of oxacillin and imipenem were estimated from the known breakpoints of the four previously tested strains (as shown in Table 1; 6 μg/mL for oxacillin, S. aureus and 6 μg/mL imipenem for Gram-negative strains). Following the decision methodology for determining antibiotic susceptibility and resistance of READAS, the strains were first tested with 2× the resistance breakpoint concentration (12 μg/mL oxacillin or imipenem) and the ASI2 was measured. This was increased up to 24× the resistance breakpoint concentration. If ASI2≥0.4 then the strain was considered susceptible. […] If neither strain achieved an ASI2≥0.4, 24× the resistance breakpoint concentration was tested and the ASI24 was measured.
As another example method of operation, operator blinded tests were conducted using susceptible and resistant strains of Gram-positive and -negative bacteria. Because the species identification was unknown, […] oxacillin was chosen as the estimated resistance breakpoint for the Gram-positive strain and 6 μg/mL imipenem was initially chosen as the resistance breakpoint for the Gram-negative strain. The stains selected for this example method of operation include Gram-positive 1 ATCC 29213, Gram-positive 2 BAA-1026, Gram-negative 1 AR55 and Gram-negative 2 AR58 with cultures of OD600=0.1, for simplicity.
(§1) Both Gram-positive strains were correctly classified using 2×(12 μg/mL oxacillin) in <120 min (97±45 min and 103±33 min). The Gram-negative strains were also correctly classified after increasing concentrations of imipenem from 2× to 20×(12 to 120 μg/mL imipenem). […] These phenotypic results were confirmed with results of standard procedure known to those skilled in the art and are included in Table 4 below, wherein READAS(S) susceptibility was defined by an ASIn≥0.4; (R) resistant was defined by an ASIn<0.4; analysis time shown in minutes. The standard procedure established susceptibility or resistance, MIC in μg/mL, and analysis time shown in hours.

[4] = system: Gram-positive 1 ATCC 29213, Gram-positive 2 BAA-1026; test: Standard procedure confirming blinded test (susceptibility, MIC, analysis time); assay type: cell-based; design: key to Standard procedure susceptibility or resistance (second symbol of cell): S: The standard procedure established susceptibility or resistance; R: The standard procedure established susceptibility or resistance
Method: as §1

[5] = system: Staphylococcus aureus (strains 29213 and 43300); details: cited from earlier work
[6] = system: A. baumannii strain 78; test: Absorbance growth curves on increasing concentration of the electron transfer mediator; assay type: cell-based, Acinetobacter baumannii; details: PMS concentrations higher than 15 μM; MH media; FIG. 3B
Method: […] The wells were inoculated to 0.1 OD600 for a total volume of 200 μL. The plates were continuously mixed by an orbital motion and maintained at 37° C. or 30° C. for S. aureus and oxacillin. Absorbance growth curves were recorded at 600 nm for 24 h and growth curves were presented as the average of three technical replicates with standard deviation.
Error bars represent standard deviation of three replicates. With this PMS concentration of 15 μM, Gram-negative species of bacteria with OD600=0.1 (approximately 10^7 and 10^8 cells per mL; Table 2) consistently had analysis times in less than 90 min, as illustrated by FIG. 3C. The current magnitude is shown to increase with increasing cell density while the response time is seen to be decreased with increasing cell density. Error bars are the standard deviation of four replicates in FIG. 3C. Increasing the cell density also contributed to the “inoculum effect” of antibiotic efficacy resulting in the need for higher concentrations of antibiotics to differentiate sensitive and resistant strains.

Cc1onc(-c2ccccc2)c1C(=O)N[C@@H]1C(=O)N2[C@@H]1SC(C)(C)[C@@H]2C(=O)O [Oxacillin, oxacillin]
MIC ([1]; strain 29213): 0.5 µg/mL (≈ 1.25 µM) | MIC ([1]; strain 43300): 32 µg/mL (≈ 79.7 µM) | sensitive or resistant according to CLSI criteria ([1]; strain 29213): S | sensitive or resistant according to CLSI criteria ([1]; strain 43300): R | current response with increasing antibiotic concentration ([2]; oxacillin 4×, 6×, 8×, 10×, 20× breakpoint (FIG. 8A), tobramycin 4× and 10× (FIG. 8B), […]10^8 CFU/mL): decreased with increasing oxacillin concentration except at low doses where no effect or an increase in the current is observed | ASIn (antibiotic susceptibility index), single replicates ([2]; strain 29213 (susceptible)): 0.4 and 0.63 and 0.59 | average ASI20 (±SE) ([2]; strain 43300 (resistant), oxacillin 20× (120 μg/mL)): 0.17±0.13 | ASIn (antibiotic susceptibility index), single replicates ([2]; strain 43300 (resistant)): 0.4 and 0.63 and 0.59 | READAS susceptibility (first symbol of cell) ([3]; Gram-positive 1 (ATCC 29213)): S/S (READAS(S) susceptibility was defined by an ASIn≥0.4) | ASIn ([3]; Gram-positive 1 (ATCC 29213)): 0.55 ± 0.14^b | READAS susceptibility (first symbol of cell) ([3]; Gram-positive 2 (BAA-1026)): R/R ((R) resistant was defined by an ASIn<0.4) | ASIn ([3]; Gram-positive 2 (BAA-1026)): −0.04 ± 0.19^b | MIC ([4]; Gram-positive 1 (ATCC 29213)): 0.5 µg/mL (≈ 1.25 µM) | Standard procedure susceptibility or resistance (second symbol of cell) ([4]; Gram-positive 1 (ATCC 29213)): S/S | MIC ([4]; Gram-positive 2 (BAA-1026)): ≥ 4 µg/mL | Standard procedure susceptibility or resistance (second symbol of cell) ([4]; Gram-positive 2 (BAA-1026)): R/R | CLSI guidelines (resistance breakpoint) for the species [5]: 6 µg/mL

COS(=O)(=O)[O-].C[n+]1c2ccccc2nc2ccccc21 [PMS, phenazine methosulfate]
inhibition of bacterial growth by the electron transfer mediator [6]: higher concentrations produced variable degrees of inhibition between strains
